This experiment concerns the target T1, MAPK1 (ERK2) (Homo sapiens, UniProt P28482).
T1 construct: purchased Thermo Fisher Scientific (Life Technologies) SelectScreen
Nature of the experiment: SelectScreen Z'LYTE. It counts as biochemical. An outline of the steps: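 NU5455 was profiled across the SelectScreen Broad panel of kinase activity and binding assays. Z'LYTE reactions such as CSF1R ran at apparent Km ATP, while the Adapta CAMK1 assay used ATP listed as 10. Values are given as percent.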

T1 sequence (P28482 whole entry): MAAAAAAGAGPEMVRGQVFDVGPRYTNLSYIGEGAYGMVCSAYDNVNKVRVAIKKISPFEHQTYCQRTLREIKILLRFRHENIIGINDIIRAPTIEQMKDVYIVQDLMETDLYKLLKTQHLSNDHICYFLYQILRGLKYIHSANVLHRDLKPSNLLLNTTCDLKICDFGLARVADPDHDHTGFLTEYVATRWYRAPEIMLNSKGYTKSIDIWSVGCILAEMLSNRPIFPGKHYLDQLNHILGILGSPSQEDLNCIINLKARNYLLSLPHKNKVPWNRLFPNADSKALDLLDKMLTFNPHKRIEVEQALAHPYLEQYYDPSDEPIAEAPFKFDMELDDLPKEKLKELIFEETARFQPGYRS

The compound `CN(C(=O)CN1CCOCC1)c1ccc2sc3c(-c4cccc5c(=O)cc(N6CC7CCC(C6)O7)oc45)cccc3c2c1` [NU5455] yielded an inhibition at 1 µM of 10.1%.

For orientation: inhibition means the change of the read-out against control, counted positive when it falls. The low end stands for a weak effect, the high end for a strong effect.

The record behind these values is publication PMC6934184, “Selective DNA-PKcs inhibition extends the therapeutic index of localized radiotherapy and chemotherapy” (The Journal of Clinical Investigation, 2019).
